{"source": "patent US20230000753A1", "about": "“Encapsulated Cleansing Composition” (Henkel AG & Co. KGaA, priority 2020, published 2023)", "tested_on": "skin", "test": "5 day cumulative irritation patch study", "format": "in vivo", "procedure": "To evaluate the skin irritation potential of cleansing products, a 5 day cumulative irritation patch study was conducted. Cumulative irritancy patch testing is a modified primary irritancy patch test that can detect weak irritants that require multiple applications to cause a skin reaction. These reactions are due to direct damage to the epidermal cells and no immunologic (allergic) mechanism is involved. The procedure used in the Examples is a modification of that described by Dr. B. M. Lanman at the Joint Conference on Cosmetic Sciences, Apr.", "data": [{"smiles": "CCCCCCCCCCCCOS(=O)(=O)[O-].[Na+]", "note": "[0.25% SLS, sodium lauryl sulfate]", "values": [{"measurement": "Irritancy Class", "result": "Moderately"}, {"measurement": "Normalized Total Score", "result": 290.2}]}]}
